Values quoted from earlier work, collected in patent US20110319370A1, “Combination Hormone Therapy for the Eye” (DUQUESNE UNIVERSITY OF THE, priority 2010, published 2011).
≈ marks a conversion by molar mass, not a printed value.

What was measured:
[1] = tested on: newborn rats treated with buthionine sulfoximine (BSO); settings: cataracts develop by age 16 days, reduced from 100% without melatonin

## COc1ccc2[nH]cc(CCNC(C)=O)c2c1 [Melatonin]
[1]
  cataract incidence: 6.2%
Aqueous media
  solubility in aqueous media: 2.4 mg/mL (≈ 10.3 mM)
Organic solvents
  solubility in organic solvents: 140.5 mg/mL (≈ 605 mM)
